Measurements taken from ChEMBL document CHEMBL4118125, “MK-8325: A silyl proline-containing NS5A inhibitor with pan-genotype activity for treatment of HCV” (Bioorg Med Chem Lett, 2018).
≈ marks a conversion by molar mass, not a printed value. Calls of active or inactive are those of the source. No cut-off for these calls is given here.

Assays:
[1] = Drug level in beagle dog at 1 mg/kg, po after 24 hrs by LC-MS/MS method; format: ADME, organism-based, Canis lupus familiaris; details: in vivo, read-out: Drug uptake
[2] = Effective half life in beagle dog at 1 mg/kg, iv by LC-MS/MS method; format: ADME, organism-based, Canis lupus familiaris; details: in vivo, read-out: t1/2eff (converted)
[3] = Oral bioavailability in beagle dog at 1 mg/kg by LC-MS/MS method; format: ADME, organism-based, Canis lupus familiaris; details: in vivo
[4] = Effective half life in Sprague-Dawley rat at 2.5 mg/kg, iv by LC-MS/MS method; format: ADME, organism-based; details: in vivo, read-out: t1/2eff (converted)
[5] = Clearance in Sprague-Dawley rat at 2.5 mg/kg, iv by LC-MS/MS method; format: ADME, organism-based; details: in vivo
[6] = Clearance in beagle dog at 1 mg/kg, iv by LC-MS/MS method; format: ADME, organism-based, Canis lupus familiaris; details: in vivo
[7] = Cytotoxicity in human HuH7 replicon cells by MTS assay; format: cell-based, Huh-7
[8] = Drug level in Sprague-Dawley rat at 2 mg/kg, po after 24 hrs by LC-MS/MS method; format: ADME, organism-based; details: in vivo, read-out: Drug uptake
[9] = Oral bioavailability in Sprague-Dawley rat at 2 mg/kg by LC-MS/MS method; format: ADME, organism-based; details: in vivo
Rattus norvegicus [10] = assay: AUC in Sprague-Dawley rat at 2 mg/kg, po by LC-MS/MS method; format: ADME, organism-based; details: in vivo
[11] = Clearance in cynomolgus monkey at 1 mg/kg, iv by LC-MS/MS method; format: ADME, organism-based, Macaca fascicularis; details: in vivo
Cytochrome P450 2D6 = Cytochrome P450 2D6 (Homo sapiens, UniProt P10635); assay: Inhibition of CYP2D6 (unknown origin); format: ADME
[12] = biological target: T1, Nuclear receptor subfamily 1 group I member 2 (Homo sapiens, UniProt O75469); assay: Activation of PXR (unknown origin); format: ADME
T1 sequence (O75469 whole entry): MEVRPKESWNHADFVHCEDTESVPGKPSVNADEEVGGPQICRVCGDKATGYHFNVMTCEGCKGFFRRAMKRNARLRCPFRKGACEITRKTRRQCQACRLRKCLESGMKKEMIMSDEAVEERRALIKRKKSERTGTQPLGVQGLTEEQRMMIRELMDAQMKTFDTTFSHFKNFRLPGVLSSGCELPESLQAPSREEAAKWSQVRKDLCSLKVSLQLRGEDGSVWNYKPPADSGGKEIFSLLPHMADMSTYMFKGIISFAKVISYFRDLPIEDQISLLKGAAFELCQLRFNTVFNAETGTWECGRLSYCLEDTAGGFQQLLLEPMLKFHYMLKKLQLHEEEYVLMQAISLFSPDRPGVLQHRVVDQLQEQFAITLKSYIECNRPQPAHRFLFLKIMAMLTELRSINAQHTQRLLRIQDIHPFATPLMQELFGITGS

Canis familiaris [13] = assay: AUC in beagle dog at 1 mg/kg, po by LC-MS/MS method; format: ADME, organism-based, Canis lupus familiaris; details: in vivo
Cytochrome P450 2C9 = Cytochrome P450 2C9 (Homo sapiens, UniProt P11712); assay: Inhibition of CYP2C9 (unknown origin); format: ADME
Cytochrome P450 3A4 = Cytochrome P450 3A4 (Homo sapiens, UniProt P08684); assay: Inhibition of CYP3A4 (unknown origin); format: ADME
[14] = Effective half life in cynomolgus monkey at 1 mg/kg, iv by LC-MS/MS method; format: ADME, organism-based, Macaca fascicularis; details: in vivo, read-out: t1/2eff (converted)
Homo sapiens = species on record: Homo sapiens; assay: Inhibition of IKs channel (unknown origin) at 30 uM
[15] = biological target: Voltage-gated inwardly rectifying potassium channel KCNH2 (Homo sapiens, UniProt Q12809); assay: Inhibition of human ERG at 30 uM
[16] = Solubility in pH 7.3 buffer; format: physicochemical
[17] = Protein binding in cynomolgus monkey plasma; format: ADME, cell-free, Macaca fascicularis; details: read-out: PPB
[18] = Drug excretion in dog assessed as unchanged compound level at 1 mg/kg, iv; format: ADME, organism-based, Canis lupus familiaris; details: in vivo
[19] = Therapeutic index, ratio of CC50 for human HuH7 replicon cells to EC50 for inhibition of HCV NS5A in HCV genotype 1b assessed as reduction in viral replication by cell based replicon assay; format: toxicity; details: read-out: Ratio CC50/EC50
[20] = Protein binding in dog plasma; format: ADME, cell-free, Canis lupus familiaris; details: read-out: PPB
[21] = Stability in cynomolgus monkey liver microsomes assessed as compound metabolism; format: ADME, Macaca fascicularis, microsome
[22] = Drug excretion in rat feces assessed as unchanged compound level at 2.5 mg/kg, iv; format: ADME, organism-based; details: faeces, read-out: Drug excretion
[23] = Ratio of drug level in liver to plasma of dog; format: ADME, cell-free, Canis lupus familiaris
[24] = Protein binding in rat plasma; format: ADME, cell-free; details: read-out: PPB
[25] = biological target: T2, PXR (Nuclear receptor subfamily 1 group I member 2) (Homo sapiens, UniProt O75469); assay: Activation of PXR (unknown origin) relative to rifampicin; format: ADME; details: read-out: FC
T2 sequence (O75469 whole entry): T1 sequence (O75469 whole entry)

[26] = Stability in rat liver microsomes assessed as compound metabolism; format: ADME, microsome
Rattus norvegicus [27] = assay: Toxicity in male rat assessed as induction of mortality up to 750 mg/kg/day, po for 7 days; format: organism-based; details: in vivo, 168 h
[28] = biological target: Voltage-gated L-type calcium channel (Homo sapiens, UniProt Q13936+Q13698+Q01668+O60840); assay: Inhibition of L-type calcium channel (unknown origin) at 30 uM; format: protein assay
Hepatocyte [29] = assay: Stability in cynomolgus monkey hepatocytes assessed as compound metabolism; format: ADME, cell-based, Macaca fascicularis
Salmonella typhimurium = assay: Genotoxicity in Salmonella typhimurium by Ames test; format: toxicity, organism-based; details: salmonella enterica subsp. enterica serovar typhimurium
Rattus norvegicus [30] = assay: Clearance in Sprague-Dawley rat at 2.5 mg/kg, iv by LC-MS/MS method relative to liver blood flow; format: ADME, organism-based; details: in vivo
[31] = Drug excretion in rat bile assessed as unchanged compound level at 2.5 mg/kg, iv; format: ADME, organism-based; details: read-out: Drug excretion
Hepatocyte [32] = assay: Stability in rat hepatocytes assessed as compound metabolism; format: ADME, cell-based
Rattus norvegicus [33] = assay: Toxicity in male rat assessed as increase in monocyte level at 100 mg/kg/day, po for 7 days; format: organism-based; details: in vivo, 168 h
[34] = Ratio of drug level in brain to plasma of dog; format: ADME, cell-free, Canis lupus familiaris; details: read-out: BPR
Hepatocyte [35] = assay: Stability in human hepatocytes assessed as compound metabolism; format: ADME, cell-based
[36] = Solubility in pH 3.1 buffer; format: physicochemical
[37] = Ratio of drug level in liver to plasma of cynomolgus monkey; format: ADME, cell-free, Macaca fascicularis
Cynomolgus monkey = assay: Clearance in cynomolgus monkey at 1 mg/kg, iv by LC-MS/MS method relative to liver blood flow; format: ADME, organism-based, Macaca fascicularis; details: in vivo
[38] = Ratio of drug level in brain to plasma of rat; format: ADME, cell-free; details: read-out: BPR
[39] = biological target: T1, Nuclear receptor subfamily 1 group I member 2; assay: Activation of PXR in human hepatocytes assessed as induction of […] mRNA expression; format: ADME, cell-based
[40] = Toxicity in female rat up to 30 mg/kg/day, po for 4 days; format: organism-based; details: in vivo
[41] = Stability in human liver microsomes assessed as compound metabolism; format: ADME, microsome
Rattus norvegicus [42] = assay: Toxicity in male rat assessed as increase in monocyte level at 750 mg/kg/day, po for 7 days; format: organism-based; details: in vivo, 168 h
[43] = biological target: T3, Solute carrier organic anion transporter family member 1B1 (Homo sapiens, UniProt Q9Y6L6); assay: Inhibition of human OATP1B1; format: ADME
T3 sequence (Q9Y6L6 whole entry): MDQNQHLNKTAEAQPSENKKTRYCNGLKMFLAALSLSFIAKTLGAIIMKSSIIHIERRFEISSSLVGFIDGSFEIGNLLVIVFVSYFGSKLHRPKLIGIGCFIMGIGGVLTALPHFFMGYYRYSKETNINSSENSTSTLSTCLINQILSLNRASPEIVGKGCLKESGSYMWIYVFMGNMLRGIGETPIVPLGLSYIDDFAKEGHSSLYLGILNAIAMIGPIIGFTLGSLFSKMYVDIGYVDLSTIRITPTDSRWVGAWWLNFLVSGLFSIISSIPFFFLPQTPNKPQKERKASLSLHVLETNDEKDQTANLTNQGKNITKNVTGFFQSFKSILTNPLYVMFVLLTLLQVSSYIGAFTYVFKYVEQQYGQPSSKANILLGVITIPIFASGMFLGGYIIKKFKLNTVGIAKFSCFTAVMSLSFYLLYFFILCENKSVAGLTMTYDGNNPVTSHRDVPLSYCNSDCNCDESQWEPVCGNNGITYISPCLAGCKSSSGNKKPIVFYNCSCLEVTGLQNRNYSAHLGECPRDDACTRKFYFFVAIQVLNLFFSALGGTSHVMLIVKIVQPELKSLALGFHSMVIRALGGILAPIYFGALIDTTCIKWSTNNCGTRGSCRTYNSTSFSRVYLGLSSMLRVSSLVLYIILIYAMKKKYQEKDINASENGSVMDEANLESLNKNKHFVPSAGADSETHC

Canis familiaris [44] = assay: Clearance in beagle dog at 1 mg/kg, iv by LC-MS/MS method relative to liver blood flow; format: ADME, organism-based, Canis lupus familiaris; details: in vivo
[45] = Dissociation constant, pKa of the compound; format: physicochemical
[46] = Ratio of drug level in brain to plasma of cynomolgus monkey; format: ADME, cell-free, Macaca fascicularis; details: read-out: BPR
Canis familiaris [47] = assay: Toxicity in male dog up to 750 mg/kg/day, po for 7 days; format: organism-based, Canis lupus familiaris; details: in vivo, 168 h
[48] = Ratio of drug level in liver to plasma of rat; format: ADME, cell-free
[49] = Permeability in MDCK2 cells; format: ADME, cell-based, Canis lupus familiaris, MDCK-II; details: dog, MDCK; read-out: permeability
[50] = Drug excretion in rat urine assessed as unchanged compound level at 2.5 mg/kg, iv; format: ADME, organism-based; details: read-out: Drug excretion
Hepatocyte [51] = assay: Stability in dog hepatocytes assessed as compound metabolism; format: ADME, cell-based, Canis lupus familiaris
[52] = Stability in dog liver microsomes assessed as compound metabolism; format: ADME, Canis lupus familiaris, microsome

Cytochrome P450 3A4, sequence (P08684 whole entry): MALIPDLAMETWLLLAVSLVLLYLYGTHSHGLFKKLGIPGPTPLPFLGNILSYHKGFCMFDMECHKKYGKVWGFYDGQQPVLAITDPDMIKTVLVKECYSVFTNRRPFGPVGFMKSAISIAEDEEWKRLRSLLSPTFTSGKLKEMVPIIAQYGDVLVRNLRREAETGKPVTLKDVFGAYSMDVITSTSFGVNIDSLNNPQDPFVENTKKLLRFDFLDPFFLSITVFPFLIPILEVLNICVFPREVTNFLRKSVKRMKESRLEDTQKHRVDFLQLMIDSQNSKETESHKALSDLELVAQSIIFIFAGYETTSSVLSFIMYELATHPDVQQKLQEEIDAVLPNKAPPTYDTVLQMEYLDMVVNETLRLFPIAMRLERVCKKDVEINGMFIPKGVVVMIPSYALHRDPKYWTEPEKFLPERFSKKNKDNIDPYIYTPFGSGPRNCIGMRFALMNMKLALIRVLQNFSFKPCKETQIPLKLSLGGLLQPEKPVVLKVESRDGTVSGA
Cytochrome P450 2D6, sequence (P10635 whole entry): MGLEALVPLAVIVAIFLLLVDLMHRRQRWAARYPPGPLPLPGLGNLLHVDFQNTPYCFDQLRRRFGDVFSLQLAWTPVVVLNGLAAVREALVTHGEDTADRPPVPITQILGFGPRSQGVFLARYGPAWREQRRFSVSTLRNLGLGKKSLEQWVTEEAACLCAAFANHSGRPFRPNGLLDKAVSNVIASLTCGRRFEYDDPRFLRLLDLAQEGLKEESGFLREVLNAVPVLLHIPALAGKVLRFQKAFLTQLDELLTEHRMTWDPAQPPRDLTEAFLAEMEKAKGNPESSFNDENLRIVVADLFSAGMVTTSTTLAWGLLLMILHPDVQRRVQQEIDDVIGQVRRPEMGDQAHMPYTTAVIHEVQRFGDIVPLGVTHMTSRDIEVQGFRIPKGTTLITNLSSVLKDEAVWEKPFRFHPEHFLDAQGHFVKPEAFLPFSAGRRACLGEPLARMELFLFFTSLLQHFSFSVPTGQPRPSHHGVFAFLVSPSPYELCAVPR
Cytochrome P450 2C9, sequence (P11712 whole entry): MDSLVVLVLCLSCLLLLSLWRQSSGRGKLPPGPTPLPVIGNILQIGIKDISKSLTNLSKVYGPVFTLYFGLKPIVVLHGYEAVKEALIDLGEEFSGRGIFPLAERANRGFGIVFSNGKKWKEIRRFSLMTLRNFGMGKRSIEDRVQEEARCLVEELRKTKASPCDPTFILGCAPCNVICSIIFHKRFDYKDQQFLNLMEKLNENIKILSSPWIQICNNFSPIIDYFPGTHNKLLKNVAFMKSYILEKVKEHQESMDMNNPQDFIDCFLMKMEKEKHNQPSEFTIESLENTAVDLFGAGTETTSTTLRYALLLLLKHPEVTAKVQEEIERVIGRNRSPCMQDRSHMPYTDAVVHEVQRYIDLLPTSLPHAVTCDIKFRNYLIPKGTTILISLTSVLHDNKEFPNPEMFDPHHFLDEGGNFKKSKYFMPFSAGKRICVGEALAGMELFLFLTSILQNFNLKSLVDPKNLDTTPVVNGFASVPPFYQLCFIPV
Voltage-gated inwardly rectifying potassium channel KCNH2, sequence (Q12809 whole entry): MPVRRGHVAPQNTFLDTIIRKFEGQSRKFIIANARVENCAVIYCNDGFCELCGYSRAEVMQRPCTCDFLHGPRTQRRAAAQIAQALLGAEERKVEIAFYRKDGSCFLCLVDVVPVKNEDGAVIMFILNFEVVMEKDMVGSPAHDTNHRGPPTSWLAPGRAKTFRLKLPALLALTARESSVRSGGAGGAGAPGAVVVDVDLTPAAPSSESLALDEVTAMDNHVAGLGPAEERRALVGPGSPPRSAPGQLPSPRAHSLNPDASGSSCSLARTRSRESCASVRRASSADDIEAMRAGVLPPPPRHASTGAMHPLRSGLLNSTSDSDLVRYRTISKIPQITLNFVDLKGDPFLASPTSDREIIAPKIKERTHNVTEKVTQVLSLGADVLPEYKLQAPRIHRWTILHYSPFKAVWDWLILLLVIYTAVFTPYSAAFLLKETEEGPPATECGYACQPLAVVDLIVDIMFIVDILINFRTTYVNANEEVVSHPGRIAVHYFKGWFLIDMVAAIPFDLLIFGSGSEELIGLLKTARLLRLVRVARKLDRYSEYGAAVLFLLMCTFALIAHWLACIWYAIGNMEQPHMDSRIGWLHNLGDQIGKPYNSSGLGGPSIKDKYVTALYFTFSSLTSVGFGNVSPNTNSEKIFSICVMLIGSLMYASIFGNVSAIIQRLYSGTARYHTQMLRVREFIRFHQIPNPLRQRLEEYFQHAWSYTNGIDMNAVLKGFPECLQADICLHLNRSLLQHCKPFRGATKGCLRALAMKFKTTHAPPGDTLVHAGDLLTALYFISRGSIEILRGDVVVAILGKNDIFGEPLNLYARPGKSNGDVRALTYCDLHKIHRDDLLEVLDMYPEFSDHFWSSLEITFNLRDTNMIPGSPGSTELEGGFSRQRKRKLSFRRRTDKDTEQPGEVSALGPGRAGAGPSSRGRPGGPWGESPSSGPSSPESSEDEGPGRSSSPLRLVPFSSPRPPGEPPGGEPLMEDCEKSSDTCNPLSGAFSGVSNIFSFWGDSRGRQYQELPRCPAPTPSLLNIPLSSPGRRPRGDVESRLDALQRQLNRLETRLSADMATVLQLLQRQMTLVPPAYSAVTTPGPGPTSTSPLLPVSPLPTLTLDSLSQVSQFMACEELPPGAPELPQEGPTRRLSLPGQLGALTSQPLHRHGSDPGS

SMILES: COC(=O)N[C@H](C(=O)N1CCC[C@H]1c1ncc(-c2ccc(-c3cc4cc(-c5cnc([C@@H]6CCCN6C(=O)[C@@H](NC(=O)OC)C(C)C)[nH]5)ccc4o3)cc2)[nH]1)C(C)C
- concentration at 24 h [1]: 4 nM
- half-life [2]: 4.7 h
- bioavailability [3]: 26%
- half-life [4]: 2 h
- clearance [5]: 9.3 mL/min/kg
- clearance [6]: 6.4 mL/min/kg
- CC50 [7]: 7 µM
- concentration at 24 h [8]: 4 nM
- bioavailability [9]: 38%
- AUC (Rattus norvegicus [10]): 1.7 uM.hr/ml
- clearance [11]: 9.1 mL/min/kg
- INH (Cytochrome P450 2D6): > 20 µM
- Activity [12]: 3 µM
- AUC (Canis familiaris [13]): 1.1 uM.hr/ml
- INH (Cytochrome P450 2C9): > 20 µM
- INH (Cytochrome P450 3A4): > 20 µM
- half-life [14]: 3 h
- inhibition (Homo sapiens): inactive

SMILES: COC(=O)N[C@H](C(=O)N1CC(F)(F)C[C@H]1c1ncc(-c2ccc(-c3ccc4c(ccc5nc([C@@H]6C[Si](C)(C)CN6C(=O)[C@@H](NC(=O)OC)C(C)C)[nH]c54)c3)cc2)[nH]1)C(C)C
- inhibition (INH) [15]: Not Active
- solubility [16]: 2.7 µg/mL (≈ 3.2 µM)
- fraction unbound [17]: < 0.001
- Drug excretion [18]: Active
- selectivity ratio [19]: > 8e+06
- fraction unbound [20]: < 0.001
- Stability [21]: Stable
- dose excreted [22]: 27%
- Kp [23]: 27
- fraction unbound [24]: < 0.001
- fold induction [25]: 0.2
- Stability [26]: Stable
- CC50 [7]: > 25 µM
- Activity (Rattus norvegicus [27]): Non-Toxic
- inhibition (INH) [28]: Not Active
- Stability (Hepatocyte [29]): Stable
- Activity (Salmonella typhimurium): Non-Toxic
- clearance (Rattus norvegicus [30]): 3 to 7%
- dose excreted [31]: 27%
- Stability (Hepatocyte [32]): Stable
- Activity (Rattus norvegicus [33]): Toxic
- INH (Cytochrome P450 2D6): > 20 µM
- Kp [34]: 0.04
- Stability (Hepatocyte [35]): Stable
- solubility [36]: 65 µg/mL (≈ 77.1 µM)
- Kp [37]: 27
- clearance (Cynomolgus monkey): 3 to 7%
- Activity [12]: > 10 µM
- Kp [38]: 0.04
- Activity [39]: > 3 µM
- INH (Cytochrome P450 2C9): > 20 µM
- NOAEL at 96 h [40]: > 30 mg/kg/day
- Stability [41]: Stable
- Activity (Rattus norvegicus [42]): Toxic
- inhibition (INH) [43]: Active
- clearance (Canis familiaris [44]): 3 to 7%
- pKa [45]: 3.57 to 5.69
- INH (Cytochrome P450 3A4): > 20 µM
- Kp [46]: 0.04
- Activity (Canis familiaris [47]): Non-Toxic
- Kp [48]: 27
- Papp [49]: 0.8 ×10⁻⁶ cm/s
- dose excreted [50]: 27%
- Stability (Hepatocyte [51]): Stable
- Stability [52]: Stable
